Measured values published in ChEMBL document CHEMBL1201862, “PubChem BioAssay data set” (2004).
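Test compounds were applied to cells in 96-well plates for 48 hours at 5 doses. GI50 is the concentration that inhibits growth by half.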 Calls of active or inactive are those of the source. No stated cut-off is given here; in the data, active = GI50 up to about 1.1 µM and inactive = higher.

Assays:
Assay in all cases: NCI anticancer screen, dose series, 48 h
[1] = tested on: A549
[2] = tested on: ACHN
[3] = tested on: DU-145
[4] = tested on: EKVX
[5] = tested on: HOP-62
[6] = tested on: IGROV-1
[7] = tested on: MCF7
[8] = tested on: NCI-H460
[9] = tested on: NCI/ADR-RES
[10] = tested on: OVCAR-3
[11] = tested on: RPMI-8226
[12] = tested on: SF-268
[13] = tested on: SK-MEL-5
[14] = tested on: SNB-19
[15] = tested on: SR
[16] = tested on: TK-10
[17] = tested on: U-251
[18] = tested on: UO-31
[19] = tested on: HOP-92

Structure (SMILES) | GI50 [1] | GI50 [2] | GI50 [3] | GI50 [4] | GI50 [5] | GI50 [6] | GI50 [7] | GI50 [8] | GI50 [9] | GI50 [10] | GI50 [11] | GI50 [12] | GI50 [13] | GI50 [14] | GI50 [15] | GI50 [16] | GI50 [17] | GI50 [18] | GI50 [19]
O=C(O)c1cc(-c2ccc3c(O)ccc(O)c3c2)ccc1O | 33.5 µM (inactive) | 19.3 µM (inactive) | 24 µM (inactive) | 18.2 µM (inactive) | 34.1 µM (inactive) | 16.7 µM (inactive) | 22.6 µM (inactive) | 20.5 µM (inactive) | 28.1 µM (inactive) | 20.9 µM (inactive) | 4.78 µM (inactive) | 29.1 µM (inactive) | 14.7 µM (inactive) | 40.9 µM (inactive) | 3.51 µM (inactive) | 20.3 µM (inactive) | 21.4 µM (inactive) | 17.4 µM (inactive) | 
Cn1c(=O)c2c(nc(NCCNc3nc4c(c(=O)n(C)c(=O)n4C)n3C)n2C)n(C)c1=O | > 100 µM (inactive) | > 100 µM (inactive) | > 100 µM (inactive) | > 100 µM (inactive) | > 100 µM (inactive) | > 100 µM (inactive) |  | > 100 µM (inactive) | > 100 µM (inactive) | > 100 µM (inactive) |  | > 100 µM (inactive) | > 100 µM (inactive) | > 100 µM (inactive) | > 100 µM (inactive) | > 100 µM (inactive) | > 100 µM (inactive) | > 100 µM (inactive) | > 100 µM (inactive)
COc1cc2cc(C(=O)N3CC(COS(C)(=O)=O)c4c3cc([N+](=O)[O-])c3ccccc43)[nH]c2c(OC)c1OC (stereo not drawn) | 2.81 µM (inactive) | 0.547 µM (active) | 0.553 µM (active) | > 31.6 µM (inactive) | 7.57 µM (inactive) | 23.5 µM (inactive) | 2 µM (inactive) | 0.0986 µM (active) | 0.698 µM (active) | > 31.6 µM (inactive) | 2.92 µM (inactive) | 10.5 µM (inactive) | > 10 µM (inactive) | > 31.6 µM (inactive) |  | > 31.6 µM (inactive) | > 31.6 µM (inactive) | 2.56 µM (inactive) | > 31.6 µM (inactive)
O=C1/C(=C/c2cccc3ccccc23)CCc2ccc([N+](=O)[O-])cc21 | 22.8 µM (inactive) | 26.8 µM (inactive) | 51.6 µM (inactive) | 47 µM (inactive) | 28.2 µM (inactive) | 31.4 µM (inactive) | 4.8 µM (inactive) | 29 µM (inactive) | 16.3 µM (inactive) | 3.22 µM (inactive) | 11.8 µM (inactive) | 33.7 µM (inactive) |  | 12.7 µM (inactive) | > 10 µM (inactive) | 27.2 µM (inactive) | 14.1 µM (inactive) | 33.7 µM (inactive) | 23 µM (inactive)
c1ccc(C2(c3cc4ccccc4[nH]3)OCCO2)nc1 | > 100 µM (inactive) | > 100 µM (inactive) | > 100 µM (inactive) | > 100 µM (inactive) | > 100 µM (inactive) | > 100 µM (inactive) | > 100 µM (inactive) | > 100 µM (inactive) | > 100 µM (inactive) | > 100 µM (inactive) |  | > 100 µM (inactive) | > 100 µM (inactive) | > 100 µM (inactive) |  | > 100 µM (inactive) | > 100 µM (inactive) | > 100 µM (inactive) | > 100 µM (inactive)
[N-]=[N+]=NC1OC(=O)C(Cl)=C1N=P(c1ccccc1)(c1ccccc1)c1ccccc1 (stereo not drawn) | > 10 µM (inactive) | 8.63 µM (inactive) | > 10 µM (inactive) | > 10 µM (inactive) | > 10 µM (inactive) | > 10 µM (inactive) | 7.13 µM (inactive) | > 10 µM (inactive) | 5.51 µM (inactive) | 5.9 µM (inactive) | 3.34 µM (inactive) | > 10 µM (inactive) | > 10 µM (inactive) | > 10 µM (inactive) |  | > 10 µM (inactive) | > 10 µM (inactive) | > 10 µM (inactive) | 
CCOC(=O)/C(C(=O)Nc1cccc(Cl)c1)=C(/N)N1CCOCC1 | > 100 µM (inactive) | > 100 µM (inactive) | > 100 µM (inactive) | > 100 µM (inactive) | > 100 µM (inactive) | > 100 µM (inactive) | > 100 µM (inactive) | > 100 µM (inactive) | > 100 µM (inactive) | > 100 µM (inactive) | > 100 µM (inactive) | > 100 µM (inactive) |  | > 100 µM (inactive) |  | > 100 µM (inactive) | > 100 µM (inactive) |  | 
C=C(C)C1=CCC[C@]2(C1)N=C(OC)[C@@H](C(C)C)N=C2OC | > 100 µM (inactive) | > 100 µM (inactive) | > 100 µM (inactive) | > 100 µM (inactive) | > 100 µM (inactive) | 47.1 µM (inactive) | 92.7 µM (inactive) | > 100 µM (inactive) | > 100 µM (inactive) | > 100 µM (inactive) | 16.3 µM (inactive) | > 100 µM (inactive) | 98.6 µM (inactive) | > 100 µM (inactive) |  | > 100 µM (inactive) | > 100 µM (inactive) | 96.4 µM (inactive) | 56 µM (inactive)
